Tested on: A498 complex spheroids with HUVEC/MSC, growth
Test: Anticancer human tumor A498 cell line growth inhibition [AhR];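 note: seven day exposure starting three days after spheroid seeding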;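 for viability, T/C: luminescence signal used as a surrogate for viable cells; luminescence viability scaled so 100% equals DMSO vehicle wells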
Conditions: for IC50: curve of first compound; for viability, T/C: stronger effect = lower value
Procedure, shortened: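 Agents were dosed in half-log steps down from roughly clinical Cmax, or from 10 microM where Cmax was unknown, alone and with AhR antagonists. Read-out: percent test/control growth of tumor spheroids containing HUVEC and MSC stromal cells.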

[1] = second compound 0.1 µM, first compound 0.0316 µM
[2] = second compound 0.1 µM, first compound 0.1 µM
[3] = second compound 0.1 µM, first compound 0.316 µM
[4] = second compound 0.1 µM, first compound 1 µM
[5] = second compound 0.1 µM, first compound 3.16 µM
[6] = second compound 0.1 µM, first compound 10 µM
[7] = second compound 0.316 µM, first compound 0.0316 µM
[8] = second compound 0.316 µM, first compound 0.1 µM
[9] = second compound 0.316 µM, first compound 0.316 µM
[10] = second compound 0.316 µM, first compound 1 µM
[11] = second compound 0.316 µM, first compound 3.16 µM
[12] = second compound 0.316 µM, first compound 10 µM
[13] = second compound 1 µM, first compound 0.0316 µM
[14] = second compound 1 µM, first compound 0.1 µM
[15] = second compound 1 µM, first compound 0.316 µM
[16] = second compound 1 µM, first compound 1 µM
[17] = second compound 1 µM, first compound 3.16 µM
[18] = second compound 1 µM, first compound 10 µM
[19] = second compound 3.16 µM, first compound 0.0316 µM
[20] = second compound 3.16 µM, first compound 0.1 µM
[21] = second compound 3.16 µM, first compound 0.316 µM
[22] = second compound 3.16 µM, first compound 1 µM
[23] = second compound 3.16 µM, first compound 3.16 µM
[24] = second compound 3.16 µM, first compound 10 µM
[25] = second compound 10 µM, first compound 0.0316 µM
[26] = second compound 10 µM, first compound 0.1 µM
[27] = second compound 10 µM, first compound 0.316 µM
[28] = second compound 10 µM, first compound 1 µM
[29] = second compound 10 µM, first compound 3.16 µM
[30] = second compound 10 µM, first compound 10 µM

Row | Structure (SMILES) | IC50 (second compound 0.1 µM) | IC50 (second compound 0.316 µM) | IC50 (second compound 1 µM) | IC50 (second compound 3.16 µM) | IC50 (second compound 10 µM) | viability, T/C [1] | viability, T/C [2] | viability, T/C [3] | viability, T/C [4] | viability, T/C [5] | viability, T/C [6] | viability, T/C [7] | viability, T/C [8] | viability, T/C [9] | viability, T/C [13] | viability, T/C [14] | viability, T/C [19] | viability, T/C [20] | viability, T/C [25] | viability, T/C [26] | other results
1 | COc1cc(Nc2ncc3c(n2)-c2ccc(Cl)cc2C(c2c(F)cccc2OC)=NC3)ccc1C(=O)O + Cc1ccccc1N=Nc1ccc(NC(=O)c2ccnn2C)c(C)c1 | 1.92 µM | 1.83 µM | 1.51 µM | 1.35 µM | 2.55 µM | 70.2% | 73% | 65.8% | 54.4% | 46.6% | 33.5% | 70% | 72.4% | 70.7% | 67.8% | 67.2% | 69.2% | 72.7% | 63.9% | 63.4% | viability, T/C [10]: 54.9%; viability, T/C [11]: 45.2%; viability, T/C [12]: 34.2%; viability, T/C [15]: 59.6%; viability, T/C [16]: 56.5%; viability, T/C [17]: 41.3%; viability, T/C [18]: 31.8%; viability, T/C [21]: 62.2%; viability, T/C [22]: 49.9%; viability, T/C [23]: 44.8%; viability, T/C [24]: 31.8%; viability, T/C [27]: 56.7%; viability, T/C [28]: 59%; viability, T/C [29]: 47.9%; viability, T/C [30]: 35.1%
2 | Cn1ncnc1C1c2n[nH]c(=O)c3cc(F)cc(c23)NC1c1ccc(F)cc1 (stereo not given) + Cc1ccccc1N=Nc1ccc(NC(=O)c2ccnn2C)c(C)c1 | > 0.1 µM | > 0.1 µM | > 0.1 µM | > 0.1 µM | > 0.1 µM | 86% | 88% | – | – | – | – | 90.4% | 88.2% | – | 81.5% | 87.3% | 83.2% | 73.7% | 79.6% | 81.7% | viability, T/C (second compound 0.1 µM, first compound 0.000316 µM): 102%; viability, T/C (second compound 0.1 µM, first compound 0.001 µM): 93.6%; viability, T/C (second compound 0.1 µM, first compound 0.00316 µM): 92.2%; viability, T/C (second compound 0.1 µM, first compound 0.01 µM): 94%; viability, T/C (second compound 0.316 µM, first compound 0.000316 µM): 96.3%; viability, T/C (second compound 0.316 µM, first compound 0.001 µM): 91.5%; viability, T/C (second compound 0.316 µM, first compound 0.00316 µM): 95.1%; viability, T/C (second compound 0.316 µM, first compound 0.01 µM): 93.3%; viability, T/C (second compound 1 µM, first compound 0.000316 µM): 93.5%; viability, T/C (second compound 1 µM, first compound 0.001 µM): 89%; viability, T/C (second compound 1 µM, first compound 0.00316 µM): 85.6%; viability, T/C (second compound 1 µM, first compound 0.01 µM): 81.2%; viability, T/C (second compound 3.16 µM, first compound 0.000316 µM): 83.7%; viability, T/C (second compound 3.16 µM, first compound 0.001 µM): 86.8%; viability, T/C (second compound 3.16 µM, first compound 0.00316 µM): 88.7%; viability, T/C (second compound 3.16 µM, first compound 0.01 µM): 84.7%; viability, T/C (second compound 10 µM, first compound 0.000316 µM): 82%; viability, T/C (second compound 10 µM, first compound 0.001 µM): 93%; viability, T/C (second compound 10 µM, first compound 0.00316 µM): 90.8%; viability, T/C (second compound 10 µM, first compound 0.01 µM): 85%
3 | NS(=O)(=O)OCC1CC(n2ccc3c(NC4CCc5ccccc54)ncnc32)CC1O (stereo not given) + Cc1ccccc1N=Nc1ccc(NC(=O)c2ccnn2C)c(C)c1 | 0.334 µM | 0.359 µM | 0.316 µM | 0.341 µM | 0.348 µM | 87.8% | 83.8% | 49.3% | 31.3% | 26% | 20.1% | 88.5% | 83.8% | 51.2% | 86.2% | 78% | 83.5% | 77.3% | 78.2% | 71.7% | viability, T/C [10]: 31%; viability, T/C [11]: 25.7%; viability, T/C [12]: 21.3%; viability, T/C [15]: 49.2%; viability, T/C [16]: 30.1%; viability, T/C [17]: 24.2%; viability, T/C [18]: 21.9%; viability, T/C [21]: 49.6%; viability, T/C [22]: 33%; viability, T/C [23]: 25.9%; viability, T/C [24]: 22.7%; viability, T/C [27]: 50.5%; viability, T/C [28]: 33.9%; viability, T/C [29]: 25%; viability, T/C [30]: 23.2%
4 | O=C(C=Cc1cccc(S(=O)(=O)Nc2ccccc2)c1)NO + Cc1ccccc1N=Nc1ccc(NC(=O)c2ccnn2C)c(C)c1 | 1.95 µM | 2.02 µM | 1.85 µM | 1.45 µM | 1.79 µM | 84.2% | 88.4% | 72% | 56.9% | 45.4% | 19.8% | 95.6% | 87.5% | 75.2% | 82.4% | 82.7% | 85.5% | 80.9% | 80.2% | 75.7% | viability, T/C [10]: 59.5%; viability, T/C [11]: 46.3%; viability, T/C [12]: 20.1%; viability, T/C [15]: 68.2%; viability, T/C [16]: 54.6%; viability, T/C [17]: 47%; viability, T/C [18]: 18.3%; viability, T/C [21]: 63%; viability, T/C [22]: 55.7%; viability, T/C [23]: 42.4%; viability, T/C [24]: 18.8%; viability, T/C [27]: 71.1%; viability, T/C [28]: 55.1%; viability, T/C [29]: 43.9%; viability, T/C [30]: 17.5%

Source: PubChem BioAssay AID1919007 (Molecular Pharmacology Branch, DTP, NCI, 2023)
